# Assay results: US7064120B2, “Tricyclic pyridyl carboxamides and derivatives thereof tocolytic oxytocin receptor antagonists” (Wyeth, priority 2001, dated 2006)
# Molecular target: T1, human vasopressin V2 receptor subtype (Homo sapiens, UniProt P30518)
# T1 construct: host or cells: CHO cells, stably transfected (pZeoSV vector)
# Assay: Vasopressin binding in CHO cell membranes expressing human vasopressin V2 subtype receptors ([3H]arginine vasopressin radioligand binding)
# Conditions: 100 nM
# Method: Vasopressin Binding in Chinese Hamster Ovary Cell Membranes Expressing Human Vasopressin V2 Subtype Receptors
# Chinese Hamster Ovary (CHO) cells stably transfected with the human V2 subtype receptors were obtained from M. Thibonnier, Case Western Reserve University School of Medicine, Cleveland, Ohio.
# The trypsin is removed by aspiration and the cells dislodged by tapping. Cell Culture medium (e.g. 30 mL for 1:30 split) is immediately added and mixed well to inactivate trypsin. 1 mL of detached cells is added to new culture flasks containing fresh Cell Culture medium (e.g. into 25 mL per T-150 flask), and mixed gently. The cells are incubated at 37° C. in 5% CO2. The medium is changed at 3 to 4 day interval (or as appropriate). […] All steps are done under sterile conditions.
# The cells are washed twice gently with Hank's Balanced Salt solution (e.g. use 10 mL per T-150 flask). […] The contents are transferred to centrifuge tubes (50 mL) kept in ice bath. All subsequent steps are done at 4° C. The tubes are centrifuged at 300×g for 15 min (1380 rpm on SORVAL, Model RT6000D, using the rotor for 50 mL tubes). The supernatant is discarded and the cells suspended in homogenizing buffer(10 mM Tris-HCl containing 0.25 M sucrose and 1 mM EDTA, pH 7.4) ensuring that the volume of the buffer is about ten times the volume of the cell pellet. The cells are pooled into a centrifuge tube (50 mL) and homogenized with Polytron at setting 6 for 10 sec. The homogenate is transferred into a Potter-Elvjehm homogenizer and homogenized with 3 strokes. The homogenate is centrifuged at 1500×g for 60 min at 4° C. (3100 rpm using SORVAL, model RT6000D, using the rotor for 50 mL tubes). The pellet is discarded. The supernatant is centrifuged at 100,000×g for 60 min. at 4° C. (Beckman L8-80M ultracentrifuge; spin at 37,500 rpm with rotor type 70 Ti for 50 mL tubes; 38,000 rpm with type 80Ti for 15 mL tubes; or 35,800 rpm with rotor type 45Ti). The supernantant is discarded and the pellet suspended in 3 to 4 mL of Tris buffer (50 mM TRIS-HCl, pH 7.4). The protein content is estimated by the Bradford or Lowry method. The volume of the membrane suspension is adjusted with the membrane buffer (50 mM Tris-HCl containing 0.1% BSA and 0.1 mM PMSF) to give 3.0 mg/mL (or as appropriate) of protein. The membranes are aliquoted and stored at −70° C.
# In wells of a 96-well format microtiter plate, is added 90, 110 or 130 μL (to make up a final volume of 200 μL) of assay buffer containing 50 mM of Tris-HCl (pH 7.4), […], 1 mg % aprotinin, 1 mg % leupeptin, 2 mg % 1,10-phenanthroline, 10 mg % trypsin inhibitor, and 0.1 mM PMSF. The inhibitors are added on the day of the experiment. The components are mixed at room temperature, and then kept in ice bath following adjustment of the pH to 7.4. […] For vasopressin and other peptide ligands 20 μL of 50% DMSO is added and the assay buffer volume is adjusted accordingly. To each well is added 50 μL of frozen membrane suspension thawed immediately prior to use and diluted in assay buffer to the required concentration (equivalent to 25 to 50 μg of protein/well as needed). 20 μL of 8 nM [^3H]arginine vasopressin ligand in the assay buffer, prepared just before use is added and incubated at room temperature for 60 min. shaking the plate on a mechanical shaker for the first 15 min. The incubation is stopped by rapid filtration of the plate contents followed by wash with ice-cold buffer (50 mM Tris-HCl, pH 7.4) using a cell harvester (Tomtek and Printed filtermat-B filter paper). The filter paper is thoroughly dried (7–12 min. in a microwave oven) and impregnated with MeltiLex B/H melt-on scintillation wax sheets and the radioactivity counted in a betaplate scintillation counter.
# Binding data is either reported as percent inhibition at a certain concentration or if an IC50 was calculated, as a nanomolar concentration.
# T1 sequence (P30518 whole entry): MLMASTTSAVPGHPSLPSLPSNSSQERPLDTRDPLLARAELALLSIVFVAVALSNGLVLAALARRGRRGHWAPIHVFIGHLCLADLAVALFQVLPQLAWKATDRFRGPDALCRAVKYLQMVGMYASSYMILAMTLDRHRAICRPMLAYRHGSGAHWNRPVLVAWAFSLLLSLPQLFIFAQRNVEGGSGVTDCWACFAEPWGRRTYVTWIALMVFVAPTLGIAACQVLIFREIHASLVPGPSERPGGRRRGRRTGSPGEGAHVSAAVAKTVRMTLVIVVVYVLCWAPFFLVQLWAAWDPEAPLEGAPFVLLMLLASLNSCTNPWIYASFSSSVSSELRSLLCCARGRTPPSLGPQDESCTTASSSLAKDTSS
inhibition at 0.1 µM,SMILES,V2 % inhibition @ 100 nM
-10%,"COc1ccccc1-c1ccc(C(=O)N2Cc3ccc(C(=O)N4CCN(c5ccncc5)CC4)n3Cc3ccccc32)cc1OC [Example 122, {10-[(2,2′-Dimethoxy-[1,1′-biphenyl]-4-yl)carbonyl]-10,11-dihydro-5H-pyrrolo[2,1-c][1,4]benzodiazepin-3-yl}[4-(4-pyridinyl)-1-piperazinyl]methanone]",
30%,"COc1cccc(-c2ccc(C(=O)N3Cc4ccc(C(=O)N5CCN(c6ccncc6)CC5)n4Cc4ccccc43)cc2OC)c1 [Example 123, {10-[(2,3′-Dimethoxy-[1,1′-biphenyl]-4-yl)carbonyl]-10,11-dihydro-5H-pyrrolo[2,1-c][1,4]benzodiazepin-3-yl}[4-(4-pyridinyl)-1-piperazinyl]methanone]",
18%,"O=C(c1ccc2n1Cc1ccccc1N(C(=O)c1ccc(-c3cccc4ccccc34)cc1Cl)C2)N1CCN(c2ccncc2)CC1 [Example 124, {10-[2-Chloro-4-(naphthalen-1-yl)benzoyl]-10,11-dihydro-5H-pyrrolo[2,1-c][1,4]benzodiazepin-3-yl}[4-(4-pyridinyl)-1-piperazinyl]methanone]",
-10%,"COc1ccccc1-c1ccc(C(=O)N2Cc3ccc(C(=O)N(C)CCc4ccncc4)n3Cc3ccccc32)cc1OC [Example 125, 10-[(2,2′-Dimethoxy-[1,1′-biphenyl]-4-yl)carbonyl]-N-methyl-N-[2-(4-pyridinyl)ethyl]-10,11-dihydro-5H-pyrrolo[2,1-c][1,4]benzodiazepine-3-carboxamide]",
5%,"COc1ccccc1-c1ccc(C(=O)N2Cc3ccc(C(=O)N(C)CCc4ccncc4)n3Cc3ccccc32)cc1C [Example 126, 10-[(2′-Methoxy-2-methyl-[1,1′-biphenyl]-4-yl)carbonyl]-N-methyl-N-[2-(4-pyridinyl)ethyl]-10,11-dihydro-5H-pyrrolo[2,1-c][1,4]benzodiazepine-3-carboxamide]",
15%,"Cc1ccccc1-c1ccc(C(=O)N2Cc3ccc(C(=O)N(C)CCc4ccncc4)n3Cc3ccccc32)cc1C [Example 127, 10-[(2,2′-Dimethyl-[1,1′-biphenyl]-4-yl)carbonyl]-N-methyl-N-[2-(4-pyridinyl)ethyl]-10,11-dihydro-5H-pyrrolo[2,1-c][1,4]benzodiazepine-3-carboxamide]",

# More lines, now with the values behind:
SMILES,inhibition at 0.1 µM,V2 % inhibition @ 100 nM
"COc1cc(C(=O)N2Cc3ccc(C(=O)N(C)Cc4cccnc4)n3Cc3ccccc32)ccc1-c1ccccc1C [Example 106, 10-[(2-Methoxy-2′-methyl-[1,1′-biphenyl]-4-yl)carbonyl]-N-methyl-N-(3-pyridinylmethyl)-10,11-dihydro-5H-pyrrolo[2,1-c][1,4]benzodiazepine-3-carboxamide]",-10%,
"COc1cc(-c2ccccc2C)c(Cl)cc1C(=O)N1Cc2ccc(C(=O)N(C)Cc3cccnc3)n2Cc2ccccc21 [Example 107, 10-[(6-Chloro-3-methoxy-2′-methyl-[1,1′-biphenyl]-4-yl)carbonyl]-N-methyl-N-(3-pyridinylmethyl)-10,11-dihydro-5H-pyrrolo[2,1-c][1,4]benzodiazepine-3-carboxamide]",30%,
"COc1cccc(-c2cc(OC)c(C(=O)N3Cc4ccc(C(=O)N(C)Cc5cccnc5)n4Cc4ccccc43)cc2Cl)c1 [Example 108, 10-[(6-Chloro-3,3′-dimethoxy-[1,1′-biphenyl]-4-yl)carbonyl]-N-methyl-N-(3-pyridinylmethyl)-10,11-dihydro-5H-pyrrolo[2,1-c][1,4]benzodiazepine-3-carboxamide]",24%,
"COc1cc(C(=O)N2Cc3ccc(C(=O)N(C)Cc4cccnc4)n3Cc3ccccc32)ccc1-c1cccc2ccccc12 [Example 109, 10-[3-Methoxy-4-(naphthalen-1-yl)benzoyl]-N-methyl-N-(3-pyridinylmethyl)-10,11-dihydro-5H-pyrrolo[2,1-c][1,4]benzodiazepine-3-carboxamide]",0%,
COc1cccc(-c2ccc(C(=O)N3Cc4ccc(C(=O)N(C)Cc5cccnc5)n4Cc4ccccc43)cc2OC)c1 [Example 110],,32%
"CN(Cc1cccnc1)C(=O)c1ccc2n1Cc1ccccc1N(C(=O)c1ccc(-c3cccc4ccccc34)cc1Cl)C2 [Example 111, 10-[2-Chloro-4-(naphthalen-1-yl)benzoyl]-N-methyl-N-(3-pyridinylmethyl)-10,11-dihydro-5H-pyrrolo[2,1-c][1,4]benzodiazepine-3-carboxamide]",23%,
"Cc1ccccc1-c1ccc(C(=O)N2Cc3ccc(C(=O)N4CCN(c5ccncc5)CC4)n3Cc3ccccc32)cc1C [Example 114, {10-[(2,2′-Dimethyl-[1,1′-biphenyl]-4-yl)carbonyl]-10,11-dihydro-5H-pyrrolo[2,1-c][1,4]benzodiazepin-3-yl}[4-(4-pyridinyl)-1-piperazinyl]methanone]",18%,
"COc1cccc(-c2ccc(C(=O)N3Cc4ccc(C(=O)N5CCN(c6ccncc6)CC5)n4Cc4ccccc43)cc2C)c1 [Example 115, {10-[(3′-Methoxy-2-methyl-[1,1′-biphenyl]-4-yl)carbonyl]-10,11-dihydro-5H-pyrrolo[2,1-c][1,4]benzodiazepin-3-yl}[4-(4-pyridinyl)-1-piperazinyl]methanone]",8%,
"COc1ccccc1-c1ccc(C(=O)N2Cc3ccc(C(=O)N4CCN(c5ccncc5)CC4)n3Cc3ccccc32)cc1 [Example 116, {10-[(2′-Methoxy-[1,1′-biphenyl]-4-yl)carbonyl]-10,11-dihydro-5H-pyrrolo[2,1-c][1,4]benzodiazepin-3-yl}[4-(4-pyridinyl)-1-piperazinyl]methanone]",63%,
"Cc1ccccc1-c1ccc(C(=O)N2Cc3ccc(C(=O)N4CCN(c5ccncc5)CC4)n3Cc3ccccc32)cc1 [Example 117, {10-[(2′-Methyl-[1,1′-biphenyl]-4-yl)carbonyl]-10,11-dihydro-5H-pyrrolo[2,1-c][1,4]benzodiazepin-3-yl}[4-(4-pyridinyl)-1-piperazinyl]methanone]",4%,
COc1cc(C(=O)N2Cc3ccc(C(=O)N4CCN(c5ccncc5)CC4)n3Cc3ccccc32)ccc1-c1ccccc1C [Example 118],,−10%
"COc1cc(-c2ccccc2C)c(Cl)cc1C(=O)N1Cc2ccc(C(=O)N3CCN(c4ccncc4)CC3)n2Cc2ccccc21 [Example 119, {10-[(6-Chloro-3-methoxy-2′-methyl-[1,1′-biphenyl]-4-yl)carbonyl]-10,11-dihydro-5H-pyrrolo[2,1-c][1,4]benzodiazepin-3-yl}[4-(4-pyridinyl)-1-piperazinyl]methanone]",17%,
"COc1cccc(-c2cc(OC)c(C(=O)N3Cc4ccc(C(=O)N5CCN(c6ccncc6)CC5)n4Cc4ccccc43)cc2Cl)c1 [Example 120, {10-[(6-Chloro-3,3′-dimethoxy-[1,1′-biphenyl]-4-yl)carbonyl]-10,11-dihydro-5H-pyrrolo[2,1-c][1,4]benzodiazepin-3-yl}[4-(4-pyridinyl)-1-piperazinyl]methanone]",16%,
"COc1cc(C(=O)N2Cc3ccc(C(=O)N4CCN(c5ccncc5)CC4)n3Cc3ccccc32)ccc1-c1cccc2ccccc12 [Example 121, {10-[3-Methoxy-4-(naphthalen-1-yl)benzoyl]-10,11-dihydro-5H-pyrrolo[2,1-c][1,4]benzodiazepin-3-yl}[4-(4-pyridinyl)-1-piperazinyl]methanone]",-4%,
